Values of other authors in patent publication US9308182B2 (TEVA PHARMACEUTICAL INDUSTRIES, LTD., priority 2012, dated 2016).
Where two headings read alike, the source gives them in different places.

Details: cited from earlier work

NCCc1ccc(O)cc1 [Tyramine, tyramine]
increase in blood pressure (1 mg injected into the portal vein): 18 mmHg | increase in blood pressure (1 mg injected systematically): 59 mmHg
